For assay [1], the target named is FabI enzyme from Acinetobacter baumannii (Acinetobacter baumannii, UniProt D0CAD5). Kind of assay: Inhibition of FabI enzyme, rate of NADH consumption. In kind it is biochemical. The protocol: Inhibition of FabI enzyme from Acinetobacter baumannii and Escherichia coli was tested by measuring the rate of NADH consumption (Δabsorbance at 340 nm/min) at 30° C. in 96-well plate format using an automated plate reader in the presence or absence of the test compounds. The assay mixture contained 100 mM Tris-HCl, pH 7.25 (A. baumannii) or 7.5 (E. coli), 100 mM ammonium acetate, 0.02% (A. baumannii) or 0.05% (E. coli) Pluronic F-68, 25 μM crotonyl ACP, 50 μM NADH, 25 pM (A. baumannii) or 50 pM (E. coli) recombinant FabI protein, and 7.5% DMSO. Test compounds were added at concentrations ranging from 0.17 to 10,000 nM in a final well volume of 100 μl. This dose-response inhibitory assay was performed using a 10-point, serial dilution series for each test compound. IC50 values for each test compound were assigned from logistical sigmoid curve-fitting of the inhibition dose response curves.

Assay [2] has as its system A. baumannii ATCC BAA1605. Put plainly: Broth microdilution MIC assay. In kind it is cell-based. As to conditions: Acinetobacter baumannii, ATCCBAA1605; CA-MHB, 35° C., 20 hours. The protocol: (§1) The antibacterial activity of FabI inhibitors against select Gram-negative and Gram-positive bacterial species including susceptible and multi-drug resistant A. baumannii, E. coli, K. pneumoniae and S. aureus was tested using the broth microdilution Minimal Inhibitory Concentration (MIC) assay following CLSI guidelines for insoluble compounds. Test articles were serially diluted 2-fold in 100% dimethyl sulfoxide (DMSO) and then diluted 100-fold into cation adjusted Mueller-Hinton broth (CA-MHB) to achieve a 10-point test concentration range in 1% DMSO. Final compound concentrations were 0.016-8 μg/ml for S. aureus or 0.06-32 μg/ml for the Gram-negative species. MIC test plates were then prepared by transferring 100 μl of the final assay medium (test article in CA-MHB, 1% DMSO) into the appropriate wells of a sterile, low binding 96-well polystyrene plate. Direct colony suspension inoculums of the test strains were freshly prepared per CLSI guidelines, and the appropriate test wells were inoculated to achieve a final bacterial cell density of 5×10^5 CFU/ml. Growth control (no test article) and negative control (no bacterial inoculum) wells were also included. Exposure to light was minimized during all stages of assay preparation. […] Bacterial growth was then determined by measuring the optical density at 600 nm (OD600) using a SpectraMax Plus plate-reader spectrophotometer.
For orientation: Broth dilution looks for growth in wells or tubes with falling amounts of substance.

The test system of another assay is E. coli AG100. Kind of assay: Broth microdilution MIC assay. As to conditions: Escherichia coli, CA-MHB, 35° C., 20 hours. The class given is cell-based. The protocol:
as §1

The next assay relates to S. aureus ATCC 29213. Kind of assay: Broth microdilution MIC assay. The settings on record: Staphylococcus aureus, ATCC29213; CA-MHB, 35° C., 20 hours. The class given is cell-based. The method, then: as §1
In another assay the test system is K. pneumoniae A6030827. Kind of assay: Broth microdilution MIC assay. The class given is cell-based. As to conditions: Klebsiella pneumoniae, CA-MHB, 35° C., 20 hours. The method, then:
as §1

Assay [3] deals with Acinetobacter baumannii ATCC 17978. Put plainly: Mouse thigh infection model. The class given is in vivo, BALB/c mice. The settings on record: 3 mg/kg q12h SC. The protocol: (§2) Groups of 5 female specific-pathogen-free BALB/c mice weighing 18±2 g were used. In the 24 hr model (bacterial counts determined 24 hr after treatment start), mice were rendered neutropenic with cyclophosphamide intraperitoneal (IP) administration conducted at Days −4 (150 mg/kg), and day −1 (100 mg/kg). In the 72 hr model (bacterial counts determined 72 hr after treatment start), animals were rendered persistently neutropenic for the duration of the infection period with cyclophosphamide intraperitoneal (IP) administration conducted at Days −4 (150 mg/kg), −1 (100 mg/kg) and +1 (100 mg/kg). Persistent neutropenia is required to prevent pathogen clearance from thigh tissue in the 74 hr model. Nutritional supplementation (diet gel) plus saline SC injections were provided daily to help animals tolerate the cyclophosphamide treatment.
On day 0, animals were inoculated intramuscularly (0.1 ml/thigh) with a 1.67×10^4 inoculum count of Acinetobacter baumannii ATCC 17978. Vehicle control (40% Captisol), positive control (tigecycline) or test substances were then administered 2 hr post infection by the subcutaneous (SC) route of administration. Each dosing group consisted of 5 female mice. The MICs of the compounds against the test strain were 8 μg/ml, 2 μg/ml and […] for compound 201, compound 71 and compound 200, respectively. At 26 or 74 hours after inoculation (24 or 72 hr after treatment initiation), animals were euthanized with CO2 asphyxiation and the thigh tissue harvested from each of the test animals. The tissues were homogenized in 3 mL of PBS, pH 7.4 with a homogenizer. Homogenates, 0.1 mL, were used for serial 10-fold dilutions and plated onto NB agar for colony counts. Efficacy is calculated as the change in log CFU/g thigh vs. the time 0 (treatment initiation) control.

In another assay the test system is A. baumannil ATCC 17978. Put plainly: Mouse lung infection model. The settings on record: 3 mg/kg q12h SC. In kind it is in vivo, BALB/c mice. The method, then:
as §2, with “lung” for “thigh”
On day 0, animals were anesthetized with etomidate-lipuro emulsion (20 mg/10 mL; 20 mg/kg dose, IV) and then inoculated intranasally with an A. baumannil ATCC 17978 suspension, 1.36×10^5 CFU/mouse, 0.02 mL/mouse. Vehicle control (40% Captisol), positive control (tigecycline) or test substances were then administered 2 hr post infection by the subcutaneous (SC) route of administration. Each dosing group consisted of 5 female mice. The MICs of the compounds against the test strain were 8 μg/ml and 0.5 μg/ml for compound 201 and compound 200, respectively. At 26 or 74 hours after inoculation (24 or 72 hr after treatment initiation), animals were euthanized with CO2 asphyxiation and the lung tissue harvested from each of the test animals. The tissues were homogenized in 1 ml of PBS, pH 7.4 with a homogenizer. Homogenates, 0.1 mL, were used for serial 10-fold dilutions and plated onto MacConkey II agar for colony counts. Efficacy is calculated as the change in log CFU/g […] vs. the time 0 (treatment initiation) control.

The mark [4] stands for this setting: recombinant FabI, 30° C., pH 7.25, read-out: A. baumannii Fabl IC50.
The mark [5] stands for this setting: total daily dose 6 mg/kg, 24 hr treatment.
Setting [6] is: total daily dose 6 mg/kg, 72 hr treatment.

Data on 15 compounds can be found in patent US12473283B2, “Compounds and their use” (Debiopharm International S.A., priority 2019, dated 2025).

In brackets after ≈: the same amount, converted by molar mass. Read-outs that look alike come from different tables or passages of the source. Where only a bound is given, the exact number is not on record here.

Chain of FabI enzyme from Acinetobacter baumannii (D0CAD5 entry or part of it): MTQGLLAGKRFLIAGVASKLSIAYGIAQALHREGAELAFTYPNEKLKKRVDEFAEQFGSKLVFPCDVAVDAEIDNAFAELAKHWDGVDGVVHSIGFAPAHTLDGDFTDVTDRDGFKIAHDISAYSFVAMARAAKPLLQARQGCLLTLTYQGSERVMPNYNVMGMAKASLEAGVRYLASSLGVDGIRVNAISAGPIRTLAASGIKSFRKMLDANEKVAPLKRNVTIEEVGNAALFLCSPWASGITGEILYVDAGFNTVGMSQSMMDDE

In assay [1], `Cc1c(CN(C)C(=O)/C=C/c2cnc3c(c2)CC[C@H](N)C(=O)N3)oc2cccc(CNc3cccnc3)c12.Cl.Cl` (single isomer, unassigned) [Compound 167, dihydrochloride] showed a concentration for half-maximal inhibition (IC50) of under 10 nM.
`Cc1oc2c(N)cccc2c1CN(C)C(=O)/C=C/c1cnc2c(c1)N[C@H](C)[C@H](N)C(=O)N2` [Compound 62, (E)-3-((2R,3S)-3-amino-2-methyl-4-oxo-2,3,4,5-tetrahydro-1H-pyrido[2,3-b][1,4]diazepin-8-yl)-N-((7-amino-2-methylbenzofuran-3-yl)methyl)-N-methylacrylamide]: in assay [1] (setting [4]), the IC50 is under 10 nM. Moreover, the minimum inhibitory concentration (MIC) (in assay [2]; in the assay with E. coli AG100; with S. aureus ATCC 29213) was at most 4 µg/mL in each case.
As for `Cc1c(CN(C)C(=O)/C=C/c2cnc3c(c2)CC[C@H](N)C(=O)N3)oc2c(F)cccc12.Cl` (single isomer, unassigned) [Compound 107, hydrochloride], the IC50 in assay [1] is under 10 nM.
Turning to `Cc1c(CN(C)C(=O)/C=C/c2cnc3c(c2)CC[C@H](N)C(=O)N3)oc2c(F)cccc12.Cl` (single isomer, unassigned) [Compound 107], the minimal inhibitory concentration (MIC) (in assay [2]; against E. coli AG100; against K. pneumoniae A6030827; in the assay with S. aureus ATCC 29213) was at most 4 µg/mL in each case.
In the case of `Cc1c(CN(C)C(=O)/C=C/c2cnc3c(c2)CC[C@H](N)C(=O)N3)oc2ccc(Oc3cccnc3)cc12.Cl` (single isomer, unassigned) [Compound 151], the MIC against E. coli AG100, against K. pneumoniae A6030827 and against S. aureus ATCC 29213 was at most 4 µg/mL throughout.
As for `Cc1c(CN(C)C(=O)/C=C/c2cnc3c(c2)CC[C@H](N)C(=O)N3)sc2ccccc12.Cl` (single isomer, unassigned) [Compound 119], the MIC (in assay [2]; in the assay on E. coli AG100; against K. pneumoniae A6030827; in the assay on S. aureus ATCC 29213) was at most 4 µg/mL in each case.
Take `Cc1c(CN(C)C(=O)/C=C/c2cnc3c(c2)CCC(N2CCN(S(C)(=O)=O)CC2)C(=O)N3)oc2ccccc12` (stereo not shown) [Compound 187, (E)-N-methyl-N-((3-methylbenzofuran-2-yl)methyl)-3-(7-(4-(methylsulfonyl)piperazin-1-yl)-8-oxo-6,7,8,9-tetrahydro-5H-pyrido[2,3-b]azepin-3-yl)acrylamide]: in assay [1] (setting [4]), the IC50 was under 10 nM. The MIC in assay [2] is at most 4 µg/mL; in the assay on E. coli AG100 it was 16 µg/mL (≈ 29 µM); against S. aureus ATCC 29213 it was at most 4 µg/mL.
As for `Cc1c(CN(C)C(=O)/C=C/c2cnc3c(c2)CC[C@H](N)C(=O)N3)oc2c(Cl)cccc12.Cl` (single isomer, unassigned) [Compound 98, hydrochloride], the IC50 in assay [1] is under 10 nM.
Still for that read-out and setting: then `Cc1c(CN(C)C(=O)/C=C/c2cnc3c(c2)CC[C@H](N)C(=O)N3)oc2ccc(Oc3cccnc3)cc12.Cl` (single isomer, unassigned) [Compound 151, hydrochloride], with under 10 nM.
Take `Cc1c(CN(C)C(=O)/C=C/c2cnc3c(c2)CC[C@H](N)C(=O)N3)oc2cccc(F)c12.Cl` (single isomer, unassigned) [Compound 130]: the minimum inhibitory concentration (MIC) (in assay [2]; in the assay on E. coli AG100; in the assay on K. pneumoniae A6030827; in the assay with S. aureus ATCC 29213) was at most 4 µg/mL in each case.
For the compound `CC(=O)NC1CNc2cc(/C=C/C(=O)N(C)Cc3oc4ccccc4c3C)cnc2NC1=O` (stereo not shown) [Compound 42, (E)-3-(3-acetamido-4-oxo-2,3,4,5-tetrahydro-1H-pyrido[2,3-b][1,4]diazepin-8-yl)-N-methyl-N-((3-methylbenzofuran-2-yl)methyl)acrylamide], the minimal inhibitory concentration (MIC) (in assay [2]; against S. aureus ATCC 29213) was at most 4 µg/mL throughout.
Take `Cc1c(CN(C)C(=O)/C=C/c2cnc3c(c2)CC[C@H](N)C(=O)N3)sc2c(F)cccc12.Cl` (single isomer, unassigned) [Compound 140, hydrochloride]: the IC50 in assay [1] is under 10 nM.
On the same count and under the same terms, then `Cc1c(CN(C)C(=O)/C=C/c2cnc3c(c2)CC[C@H](N)C(=O)N3)oc2cccc(F)c12.Cl` (single isomer, unassigned) [Compound 130, hydrochloride], with under 10 nM.
Take `CN(C)c1cc(NC(=O)CNC(C)(C)C)c(O)c2c1C[C@H]1C[C@H]3[C@H](N(C)C)C(O)=C(C(N)=O)C(=O)[C@@]3(O)C(O)=C1C2=O` [Tigecycline, reference compound]: the “Mean Change log CFU/g thigh 24 hr” value in assay [3] (24 hr, vs. time 0 control) is listed as −2.48 log CFU/g thigh. Further, the “Mean Change log CFU/g thigh 72 hr” value in assay [3] (72 hr, vs. time 0 control) was −3.48 log CFU/g thigh. Besides, in assay [3] (setting [5]), the “Mean Log CFU/g thigh 24 hr” value turned out to be 2.37 log CFU/g thigh. Besides, in assay [3] (setting [6]), the “Mean Log CFU/g thigh 72 hr” value was 1.36 log CFU/g thigh. For the same compound, the “Mean change log CFU/g lung 24 hr” value in the assay on A. baumannil ATCC 17978 (24 hr, vs. time 0 control) is on record as −3.44 log CFU/g lung. Besides, the “Mean change log CFU/g lung 72 hr” value in the assay with A. baumannil ATCC 17978 (72 hr, vs. time 0 control) was −4.74 log CFU/g lung. Further, in the assay with A. baumannil ATCC 17978 (setting [5]), the “Mean Log CFU/g lung 24 hr” value was found to be 2.87 log CFU/g lung. Moreover, the “Mean Log CFU/g lung 72 hr” value with A. baumannil ATCC 17978 (setting [6]) is 1.57 log CFU/g lung.
As to `Cc1c(CN(C)C(=O)/C=C/c2cnc3c(c2)N[C@H](C)[C@H](N)C(=O)N3)oc2ccccc12` [Compound 52, (E)-3-((2R,3S)-3-amino-2-methyl-4-oxo-2,3,4,5-tetrahydro-1H-pyrido[2,3-b][1,4]diazepin-8-yl)-N-methyl-N-((3-methylbenzofuran-2-yl)methyl)acrylamide], in assay [1] (setting [4]), the 50% inhibitory concentration (IC50) is under 10 nM. Moreover, the MIC (in assay [2]; with E. coli AG100; with S. aureus ATCC 29213) was at most 4 µg/mL in each case.

Usually IC50 stands for the concentration at which inhibition is half-maximal. A word on the MIC: it is the least concentration at which growth counts as inhibited.
